Assay results: ChEMBL document CHEMBL1141361, “Niphatoxin C, a cytotoxic tripyridine alkaloid from Callyspongia sp” (J Nat Prod, 2007)
pIC50: −log10 of the molar value.

Columns and labels:
THP-1 [1] = assay: Increase in hemolysin-induced pore formation in human THP1 cells at 100 uM relative to control; format: functional
THP-1 [2] = assay: Cytotoxicity against human THP1 cells at 100 uM; format: functional
THP-1 [3] = assay: Increase in hemolysin-induced pore formation in human THP1 cells at 10 uM relative to control; format: functional
THP-1 [4] = assay: Cytotoxicity against human THP1 cells at 30 uM; format: functional
[5] = target: T1, P2X purinoceptor 7 (Homo sapiens) (UniProt Q99572); assay: Antagonist activity at P2X7 receptor expressed in human THP1 cells assessed as reduction of benzoylbenzoyl adenosine triphosphate-induced pore formation at 10 uM relative to control; format: functional, cell-based; set-up: scale not given: the % may be the effect or the level left; conditions: THP-1
T1 sequence (whole entry): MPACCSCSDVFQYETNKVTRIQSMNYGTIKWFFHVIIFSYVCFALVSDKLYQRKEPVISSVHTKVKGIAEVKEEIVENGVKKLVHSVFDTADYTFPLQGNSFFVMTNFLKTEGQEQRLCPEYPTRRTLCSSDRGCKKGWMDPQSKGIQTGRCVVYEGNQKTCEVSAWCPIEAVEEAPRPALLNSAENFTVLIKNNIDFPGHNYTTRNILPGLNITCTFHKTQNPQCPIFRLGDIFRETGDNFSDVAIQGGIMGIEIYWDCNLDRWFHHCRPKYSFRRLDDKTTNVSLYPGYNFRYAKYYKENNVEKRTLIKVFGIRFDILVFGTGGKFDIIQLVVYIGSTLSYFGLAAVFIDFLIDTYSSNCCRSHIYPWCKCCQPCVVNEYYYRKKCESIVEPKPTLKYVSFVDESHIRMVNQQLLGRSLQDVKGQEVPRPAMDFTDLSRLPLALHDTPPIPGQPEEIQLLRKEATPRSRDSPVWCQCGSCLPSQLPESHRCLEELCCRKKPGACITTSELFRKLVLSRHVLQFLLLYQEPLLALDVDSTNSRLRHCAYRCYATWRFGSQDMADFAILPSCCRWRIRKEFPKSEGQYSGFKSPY

THP-1 [6] = assay: Cytotoxicity against human THP1 cells after 21 hrs; format: functional, cell-based; conditions: THP-1, 21 h

Work on `C(=C/CCCC[n+]1cccc(C/C=C\CCCCCCc2cccnc2)c1)/CCCCCCc1cccnc1` [NIPHATOXIN C] yielded an Activity (THP-1 [1]) of 185%, an Activity (THP-1 [2]) of 99% and an Activity (THP-1 [3]) of 101%. It also gave an Activity (THP-1 [4]) of 0%, an Activity [5] of 41% and a pIC50 (THP-1 [6]) of 4.94.
